One assay relates to TOV21G. Put plainly: Cell proliferation (CyQUANT) TOV21G. Format: cell-based. To be noted: Homo sapiens, 168 h, 7 days, read-out: Anti-proliferation assay: IC50 (nM) [Cell Line: TOV21G]. In outline:
(§1)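 Cells were seeded at 2500, 1000 or 3000 cells/well, cultured overnight, then exposed to 3-fold compound dilutions for 7 days (final DMSO at most 0.01%). CyQUANT fluorescence was read at Ex/Em 480/520 nm; % inhibition computed relative to same-plate DMSO wells.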

The next assay relates to OVCAR3. The assay can be described thus: Cell proliferation (CyQUANT) OVCAR3. Format: cell-based. To be noted: Homo sapiens, OVCAR-3, 168 h, OVCAR3, 7 days, read-out: Anti-proliferation assay: IC50 (nM) [Cell Line: OVCAR3]. In outline: as §1
The target in a further assay is CDK2/CycE1 (Homo sapiens, UniProt P24941). The assay can be described thus: In vitro kinase TR-FRET assay CDK2/CycE1. To be noted: enzyme 0.6 nM, ATP 82 μM, read-out: CDK2 cyclinE1 activity assay: IC50. Format: biochemical. In outline:
(§2)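 Enzymes at 3 nM (CDK2/CycA2), 0.6 nM (CDK2/CycE1), 0.3 nM (CDK1/cyclinB), 0.6 nM (GSK3β) with ATP at 27, 82, 56, 7.6 μM respectively, 50 nM ULight-4E-BP1 peptide, HEPES pH7.5; 10-point 3-fold dilutions. 1 h reaction at room temperature; Eu-anti-phospho-4E-BP1 TR-FRET (665/615 nm) read; IC50 from dose-response curves.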
(In general: In TR-FRET formats the signal depends on donor and acceptor labels being close together.)

For another assay, the target named is CDK2/CycA2 (Homo sapiens, UniProt P24941). Put plainly: In vitro kinase TR-FRET assay CDK2/CycA2. To be noted: enzyme 3 nM, ATP 27 μM, read-out: CDK2 cyclinA2 activity assay: IC50. Format: biochemical. In outline:
as §2

In another assay the target is CDK1/cyclinB (Homo sapiens, UniProt P06493). Put plainly: In vitro kinase TR-FRET assay CDK1/cyclinB. Format: biochemical. To be noted: enzyme 0.3 nM, ATP 56 μM. In outline: as §2
Chain of CDK1/cyclinB (P06493 whole entry): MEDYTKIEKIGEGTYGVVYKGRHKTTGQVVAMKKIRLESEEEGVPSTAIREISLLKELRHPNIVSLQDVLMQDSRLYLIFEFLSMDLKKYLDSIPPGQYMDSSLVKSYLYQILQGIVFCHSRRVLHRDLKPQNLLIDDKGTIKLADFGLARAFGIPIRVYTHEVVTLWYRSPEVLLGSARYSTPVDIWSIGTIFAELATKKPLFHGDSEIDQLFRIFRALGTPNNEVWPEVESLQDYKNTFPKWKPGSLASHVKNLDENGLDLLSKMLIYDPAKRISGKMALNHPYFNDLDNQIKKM
Chain of CDK1/cyclinB (P14635 whole entry partner): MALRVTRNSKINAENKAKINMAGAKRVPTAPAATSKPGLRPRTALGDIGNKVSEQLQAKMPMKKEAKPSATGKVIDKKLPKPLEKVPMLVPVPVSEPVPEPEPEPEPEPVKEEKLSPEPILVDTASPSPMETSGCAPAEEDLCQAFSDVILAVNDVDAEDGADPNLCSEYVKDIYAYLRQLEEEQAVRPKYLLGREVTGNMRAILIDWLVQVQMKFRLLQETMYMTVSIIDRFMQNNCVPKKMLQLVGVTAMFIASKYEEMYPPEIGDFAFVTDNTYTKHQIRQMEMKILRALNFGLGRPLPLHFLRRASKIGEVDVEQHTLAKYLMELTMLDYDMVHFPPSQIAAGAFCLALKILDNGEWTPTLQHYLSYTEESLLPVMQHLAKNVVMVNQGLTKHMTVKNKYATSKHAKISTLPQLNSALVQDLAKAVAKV
In the next assay the target is GSK3β (Homo sapiens, UniProt P49841). The assay can be described thus: In vitro kinase TR-FRET assay GSK3β. Format: biochemical. To be noted: enzyme 0.6 nM, ATP 7.6 μM. In outline:
as §2

SMILES strings stand for the structures.

Chain of GSK3β (P49841 whole entry, species assumed): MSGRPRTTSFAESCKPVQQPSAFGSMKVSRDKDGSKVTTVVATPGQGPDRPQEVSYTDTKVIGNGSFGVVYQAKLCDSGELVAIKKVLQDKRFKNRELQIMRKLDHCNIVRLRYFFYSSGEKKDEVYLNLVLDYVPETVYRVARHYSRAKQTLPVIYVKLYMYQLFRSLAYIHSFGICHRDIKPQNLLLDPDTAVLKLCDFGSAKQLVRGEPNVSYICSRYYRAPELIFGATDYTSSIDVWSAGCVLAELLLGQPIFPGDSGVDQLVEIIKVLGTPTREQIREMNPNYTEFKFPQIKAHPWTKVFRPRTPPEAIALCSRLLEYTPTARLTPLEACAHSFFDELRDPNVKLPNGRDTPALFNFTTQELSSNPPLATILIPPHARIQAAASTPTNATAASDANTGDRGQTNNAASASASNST

As for `CC(C)NC(=O)O[C@H]1CC[C@@H](c2cc(Nc3ccc4c(c3)S(=O)(=O)NC4)n[nH]2)CC1` [Example 37, (1s,4s)-4-(3-((1,1-dioxido-2,3-dihydrobenzo[d]isothiazol-6-yl)amino)-1H-pyrazol-5-yl)cyclohexyl isopropylcarbamate], the IC50 was at least 1000 nM with TOV21G; at least 1000 nM in the assay with OVCAR3; under 0.05 µM at CDK2/CycE1; under 0.05 µM at CDK2/CycA2; 0.05 to 0.5 µM against CDK1/cyclinB; over 1 µM on GSK3β.
On to `CC(C)NC(=O)O[C@@H]1CC[C@H](c2cc(Nc3ccc4c(c3)CCS4(=O)=O)n[nH]2)C1` [Example 9, (1R,3S)-3-(3-((1,1-dioxido-2,3-dihydrobenzo[b]thiophen-5-yl)amino)-1H-pyrazol-5-yl)cyclopentyl isopropylcarbamate], for which the IC50 was at least 1000 nM with TOV21G; at most 500 nM in the assay on OVCAR3; under 0.05 µM at CDK2/CycE1; under 0.05 µM at CDK2/CycA2; 0.05 to 0.5 µM at CDK1/cyclinB; 0.05 to 0.5 µM against GSK3β.
On to `CC(C)NC(=O)O[C@@H]1CC[C@H](c2cc(Nc3ccc4c(c3)CS(=O)(=O)N4C)n[nH]2)C1` [Example 42, (1R,3S)-3-{5-[(1-methyl-2,2-dioxo-1,3-dihydro-2%6-benzo[c][1,2]thiazol-5-yl)amino]-2H-pyrazol-3-yl}cyclopentyl (prop-2-ylamino)methanoate], for which the IC50 is at most 500 nM with TOV21G; at most 500 nM in the assay with OVCAR3; under 0.05 µM on CDK2/CycE1; under 0.05 µM on CDK2/CycA2; 0.05 to 0.5 µM on CDK1/cyclinB; 0.5 to 1 µM against GSK3β.
Turning to `CC(C)NC(=O)O[C@@H]1CC[C@H](c2cc(Nc3cccc4c3CS(=O)(=O)CC4O)[nH]n2)C1` (stereo partly drawn) [Example 62, (1R,3S)-3-(5-((4-hydroxy-2,2-dioxidoisothiochroman-8-yl)amino)-1H-pyrazol-3-yl)cyclopentyl isopropylcarbamate], the IC50 in the assay with TOV21G was at least 1000 nM; in the assay on OVCAR3, at most 500 nM; on CDK2/CycE1 it was under 0.05 µM; at CDK2/CycA2, under 0.05 µM; against CDK1/cyclinB it was 0.05 to 0.5 µM; against GSK3β it was over 1 µM.
As for `CC(C)NC(=O)O[C@@H]1CC[C@H](c2cc(Nc3ccc(Cl)c4c3CCS4(=O)=O)n[nH]2)C1` [Example 64, (1R,3S)-3-(3-((7-chloro-1,1-dioxido-2,3-dihydrobenzo[b]thiophen-4-yl)amino)-1H-pyrazol-5-yl)cyclopentyl isopropylcarbamate], the IC50 in the assay on TOV21G is at least 1000 nM; in the assay with OVCAR3, at most 500 nM; on CDK2/CycE1, under 0.05 µM; on CDK2/CycA2 it was under 0.05 µM; against CDK1/cyclinB it was 0.05 to 0.5 µM; at GSK3β, 0.05 to 0.5 µM.
As to `CC(C)NC(=O)O[C@H]1C[C@@H](c2cc(Nc3ccc4c(c3)CS(=O)(=O)C4)n[nH]2)C1` [Example 28, (1s,3s)-3-(3-((2,2-dioxido-1,3-dihydrobenzo[c]thiophen-5-yl)amino)-1H-pyrazol-5-yl)cyclobutyl isopropylcarbamate], the IC50 in the assay with TOV21G is at most 500 nM; in the assay on OVCAR3 it was at most 500 nM; at CDK2/CycE1 it was under 0.05 µM; at CDK2/CycA2, under 0.05 µM; against CDK1/cyclinB it was under 0.05 µM; against GSK3β it was 0.05 to 0.5 µM.
In the case of `CC(C)NC(=O)O[C@@H]1CC[C@H](c2cc(Nc3ccc4c(c3)C(=O)NS4(=O)=O)[nH]n2)C1` [Example 5, (1R,3S)-3-(5-((1,1-dioxido-3-oxo-2,3-dihydrobenzo[d]isothiazol-5-yl)amino)-1H-pyrazol-3-yl)cyclopentyl isopropylcarbamate], the IC50 in the assay on TOV21G is at least 1000 nM; in the assay with OVCAR3, at least 1000 nM; at CDK2/CycE1, under 0.05 µM; at CDK2/CycA2 it was under 0.05 µM; against CDK1/cyclinB it was over 1 µM; against GSK3β it was 0.5 to 1 µM.
For `CC(C)NC(=O)O[C@@H]1CC[C@H](c2cc(Nc3ccc4c(c3)C(C#N)CC4)n[nH]2)C1` (stereo partly drawn) [Example 31, (1R,3S)-3-{5-[(3-cyano-2,3-dihydro-1H-inden-5-yl)amino]-2H-pyrazol-3-yl}cyclopentyl (prop-2-ylamino)methanoate], the IC50 in the assay on TOV21G is at most 500 nM; with OVCAR3, at most 500 nM; at CDK2/CycE1, under 0.05 µM; on CDK2/CycA2 it was under 0.05 µM; against CDK1/cyclinB it was 0.05 to 0.5 µM; on GSK3β, 0.05 to 0.5 µM.
For `CC(C)NC(=O)O[C@@H]1CC[C@H](c2cc(Nc3ccc4c(c3F)CCS4(=O)=O)n[nH]2)C1` [Example 60, (1R,3S)-3-(3-((4-fluoro-1,1-dioxido-2,3-dihydrobenzo[b]thiophen-5-yl)amino)-1H-pyrazol-5-yl)cyclopentyl isopropylcarbamate], the IC50 in the assay on TOV21G is at least 1000 nM; with OVCAR3 it was at most 500 nM; at CDK2/CycE1, under 0.05 µM; on CDK2/CycA2, under 0.05 µM; against CDK1/cyclinB, 0.05 to 0.5 µM; on GSK3β, over 1 µM.
For `COC1CS(=O)(=O)c2ccc(Nc3cc([C@H]4CC[C@@H](OC(=O)NC(C)C)C4)n[nH]3)cc21` (stereo partly drawn) [Example 15, (1R,3S)-3-{5-[(3-methoxy-1,1-dioxo-2,3-dihydro-1λ^6-benzothiophen-5-yl)amino]-2H-pyrazol-3-yl}cyclopentyl (prop-2-ylamino)methanoate], the IC50 in the assay on TOV21G is at least 1000 nM; in the assay on OVCAR3 it was at most 500 nM; at CDK2/CycE1, under 0.05 µM; at CDK2/CycA2, under 0.05 µM; against CDK1/cyclinB, 0.05 to 0.5 µM; at GSK3β it was 0.05 to 0.5 µM.
Regarding `CC(C)NC(=O)O[C@@H]1CC[C@H](c2cc(Nc3ccc4c(c3)CS(=O)(=O)N4)n[nH]2)C1` [Example 45, (1R,3S)-3-{5-[(2,2-dioxo-1,3-dihydro-2λ6-benzo[c][1,2]thiazol-5-yl)amino]-2H-pyrazol-3-yl}cyclopentyl (prop-2-ylamino)methanoate], the IC50 in the assay with TOV21G is at least 1000 nM; with OVCAR3, at least 1000 nM; at CDK2/CycE1, under 0.05 µM; on CDK2/CycA2, under 0.05 µM; at CDK1/cyclinB, under 0.05 µM; at GSK3β, over 1 µM.
Take `CC(C)NC(=O)O[C@@H]1CC[C@H](c2cc(Nc3ccc4c(c3)C(C)NS4(=O)=O)[nH]n2)C1` (stereo partly drawn) [Example 10, (1R,3S)-3-(5-((3-methyl-1,1-dioxido-2,3-dihydrobenzo[d]isothiazol-5-yl)amino)-1H-pyrazol-3-yl)cyclopentyl isopropylcarbamate]: the IC50 with TOV21G was at least 1000 nM; in the assay on OVCAR3 it was at most 500 nM; on CDK2/CycE1 it was under 0.05 µM; at CDK2/CycA2 it was under 0.05 µM; on CDK1/cyclinB it was under 0.05 µM; against GSK3β, 0.05 to 0.5 µM.
`CC(C)NC(=O)O[C@@H]1CC[C@H](c2cc(Nc3ccc(F)c4c3CN(C)S4(=O)=O)n[nH]2)C1` [Example 67, (1R,3S)-3-{5-[(7-fluoro-2-methyl-1,1-dioxo-2,3-dihydro-1λ^6-benzo[2,1-d][1,2]thiazol-4-yl)amino]-2H-pyrazol-3-yl}cyclopentyl (prop-2-ylamino)methanoate]: the IC50 was at least 1000 nM in the assay on TOV21G; at most 500 nM in the assay with OVCAR3; under 0.05 µM on CDK2/CycE1; under 0.05 µM at CDK2/CycA2; 0.05 to 0.5 µM against CDK1/cyclinB; over 1 µM on GSK3β.
With `CC(C)NC(=O)O[C@@H]1CC[C@H](c2cc(Nc3ccc4c(c3)CCC(=O)N4)[nH]n2)C1` [Example 30, (1R,3S)-3-{5-[(2-oxo-1,2,3,4-tetrahydroquinolin-6-yl)amino]-1H-pyrazol-3-yl}cyclopentyl (prop-2-ylamino)methanoate], the IC50 in the assay on TOV21G is at least 1000 nM; in the assay on OVCAR3 it was 500 to 1000 nM; at CDK2/CycE1, under 0.05 µM; on CDK2/CycA2 it was under 0.05 µM; on CDK1/cyclinB it was 0.05 to 0.5 µM; against GSK3β, over 1 µM.
`CC(C)NC(=O)O[C@@H]1CC[C@H](c2cc(Nc3ccc4c(c3)CCC4C#N)n[nH]2)C1` (stereo partly drawn) [Example 29, (1R,3S)-3-{5-[(1-cyano-2,3-dihydro-1H-inden-5-yl)amino]-2H-pyrazol-3-yl}cyclopentyl (prop-2-ylamino)methanoate]: the IC50 was at least 1000 nM in the assay on TOV21G; 500 to 1000 nM in the assay with OVCAR3; under 0.05 µM on CDK2/CycE1; under 0.05 µM on CDK2/CycA2; 0.05 to 0.5 µM against CDK1/cyclinB; 0.05 to 0.5 µM at GSK3β.
In the case of `CC(C)NC(=O)O[C@@H]1CC[C@H](c2cc(Nc3ccc4c(c3)CCC4=O)n[nH]2)C1` [Example 25, (1R,3S)-3-{5-[(1-oxo-2,3-dihydro-1H-inden-5-yl)amino]-2H-pyrazol-3-yl}cyclopentyl (prop-2-ylamino)methanoate], the IC50 in the assay on TOV21G is at least 1000 nM; with OVCAR3 it was at most 500 nM; at CDK2/CycE1, under 0.05 µM; on CDK2/CycA2, under 0.05 µM; on CDK1/cyclinB it was 0.05 to 0.5 µM; on GSK3β it was 0.05 to 0.5 µM.

The values are drawn from patent US20240246950A1, “Anilino-Pyrazole Derivatives, Compositions and Methods Thereof” (Ensem Therapeutics, priority 2022, published 2024).
